Literature values, collected in patent US20110015154A1, “SUPPORTING ACETYLCHOLINE FUNCTION” (priority 2009, published 2011).

What was measured:
[1] = supplementation
[2] = test system: cells; settings: against hydrogen peroxide, beta-amyloid protein, glutamate, ischemia, staurosporine-induced cytotoxicity, and apoptosis
[3] = test system: nuclear factor-kappa B (NFκB); settings: after 14 days of administration
[4] = in vivo
[5] = test system: M2 receptors; settings: adult rats
[6] = test system: M1 receptors; settings: adult rats

## CC(=O)O[C@H](CC(=O)[O-])C[N+](C)(C)C [acetyl-L-carnitine]
[1]
  pain in patients with diabetic peripheral neuropathy: reduce pain

## C/C=C1\[C@H]2C=C(C)C[C@]1(N)c1ccc(=O)[nH]c1C2 [huperzine A, Huperzine A]
[2]
  cell protection: protects cells
[3]
  activation of glial cells in an ischemic event: reduced
  nuclear translocation of transcription factor NFκB: inhibited
  overexpression of pro-inflammatory mediators in an immune challenge: decreased

## C[N+](C)(C)CCOP(=O)([O-])OC[C@H](O)CO [α-GPC, Alpha-glycerylphosphorylcholine]
[4]
  blood-brain barrier passage: can cross the blood-brain barrier
  metabolism: rapidly metabolized into choline and glycerophosphate
[5]
  effect on M2 receptors: no effect
[6]
  effect on M1 receptors: countered the loss of M1 receptors
